Assay [1] relates to LL29 cells (primary human fibroblasts derived from IPF patients) treated with TGF-β1, α-smooth muscle actin. The assay is described as follows: Inhibition of the fibrotic process: αSMA staining in TGF-β1 treated primary human fibroblasts from IPF patients (LL29 cells). The class given is cell-based. The following applies: Fibroblast, 96 h; for pEC50: LL29 cells treated with TGF-β1 (20 ng/mL), 4 days; for inhibition at 10 µM: LL29 cells treated with TGF-β1, 4 days, read-out: percent inhibition in brackets (given for EC50 >10 μM).

In assay [2] the test system is primary human mesenchymal stem cells (hMSCs). The assay is described as follows: Induction of chondrogenesis in primary human mesenchymal stem cells (hMSCs), nodule imaging with Rhodamine B / Nile Red. The class given is cell-based. To be noted: for Emax: hMSCs chondrogenesis, TGF-β3 (10 ng/mL) as positive control, read-out: Max. Activity as % TGF-β3 activity; for EC50: hMSCs, concentration required to induce 50% levels of chondrogenesis vs TGF-β3 positive control, read-out: Conc (nM) of 50% TGF-β3 activity. Here is the method:
Representative compounds were screened using primary human mesenchymal stem cells (hMSCs) to determine their ability to induce chondrogenesis (process by which cartilage is developed).
Human Mesenchymal Stem Cell Culture: Primary human mesenchymal stem cells (hMSCs) were purchased from Lonza (Walkersville, Md.) and expanded in Mesenchymal Stem Cell Growth Media (Lonza). Cells between passage 3 and 6 were used for the experiments.
Compound Screening: Each compound was dissolved in DMSO as a 10 mM stock and used to prepare compound source plates. For the 96 well assay, serial dilution (1:3, 6-point dose-response curves from 2700 nM to 10 nM) and compound transfer was performed using the ECHO 550 (Labcyte, Sunnyvale, Calif.) into 96-well clear bottom assay plates (Greiner Bio-One) with appropriate DMSO backfill for a final DMSO concentration of 0.03%. hMSCs were plated at 20,000 cells/well in 250 μL/well Incomplete Chondrogenic Induction Medium (Lonza; DMEM, dexamethasone, ascorbate, insulin-transferrin-selenium [ITS supplement], gentamycin-amphotericin [GA-1000], sodium pyruvate, proline and L-glutamine). TGF-β3 (10 ng/mL) was used as a positive control for differentiation while negative control wells were treated with 75 nL DMSO for normalization and calculating EC50 values. For the 384 well assay, serial dilution (1:3, 8-point dose-response curves from 5000 nM to 2.2 nM) and compound transfer was performed using the ECHO 550 (Labcyte, Sunnyvale, Calif.) into 384-well clear bottom assay plates (Greiner Bio-One) with appropriate DMSO backfill for a final DMSO concentration of 0.03%. hMSCs were plated at 8,000 cells/well in 80 μL/well Incomplete Chondrogenic Induction Medium (Lonza; DMEM, dexamethasone, ascorbate, insulin-transferrin-selenium [ITS supplement], gentamycin-amphotericin [GA-1000], sodium pyruvate, proline and L-glutamine). TGF-β3 (10 ng/mL) was used as a positive control for differentiation while negative control wells were treated with 25 nL DMSO for normalization and calculating EC50 values. Cells were incubated at 37° C. and 5% CO2 for 6 days. To image chondrogenic nodules, the cells were fixed using 4% formaldehyde (Electron Microscopy Sciences), and stained with 2 μg/mL Rhodamine B (Sigma-Aldrich) and 20 μM Nile Red (Sigma-Aldrich) [Johnson K., et.al, A Stem Cell-Based Approach to Cartilage Repair, Science, (2012), 336(6082). 717-721]. The nodules imaged (25 images per well for 96 well plates and 9 images per well for 384 well plates at 10× magnification) by excitation at 531 nm and emission at 625 nm and quantified using the CellInsight CX5 (Thermo Scientific). Area of nodules in each well was normalized to the average of 3 DMSO treated wells on the same plate using Excel (Microsoft Inc.). The normalized averages (fold change over DMSO) of 2 or 3 replicate wells for each compound concentration were calculated. Due to solubility limitations of some of the compounds, curve fitting was incomplete leading to inaccurate EC50 determinations.
Using TGF-β3 as a positive control, the concentration of representative compounds required to induce 50% levels of chondrogenesis is reported. In addition, the maximum activity of each compound and the respective dose that each compound reached maximum chondrogenesis activity is reported.

pEC50: −log10 of the molar value.

Consider `CCC(=O)Nc1cncc(-c2ccc3[nH]nc(-c4nc5c(-c6cccc(F)c6)cncc5[nH]4)c3n2)c1` [Compound 1, N-(5-(3-(7-(3-Fluorophenyl)-3H-imidazo[4,5-c]pyridin-2-yl)-1H-pyrazolo[4,3-b]pyridin-5-yl)pyridin-3-yl)propionamide], for which, in assay [1], the negative logarithm of the EC50 (pEC50) is under 5.00 and the inhibition at 10 µM is 0%. In addition, in assay [2], the Emax was 580% and the EC50 came to 1670 nM.

Turning to `CC(C)CC(=O)Nc1cncc(-c2ccc3[nH]nc(-c4nc5c(-c6cccc(F)c6)cncc5[nH]4)c3n2)c1` [Compound 2, N-(5-(3-(7-(3-Fluorophenyl)-3H-imidazo[4,5-c]pyridin-2-yl)-1H-pyrazolo[4,3-b]pyridin-5-yl)pyridin-3-yl)-3-methylbutanamide], the negative-log EC50 (pEC50) in assay [1] was 5.39. Besides, in assay [2], the Emax was found to be 53% and the EC50 is 21 nM.

As to `Cn1cc(-c2ccc3[nH]nc(-c4nc5c(-c6cccs6)cncc5[nH]4)c3n2)cn1` [Compound 656, 5-(1-Methyl-1H-pyrazol-4-yl)-3-(7-(thiophen-2-yl)-3H-imidazo[4,5-c]pyridin-2-yl)-1H-pyrazolo[4,3-b]pyridine], in assay [1], the pEC50 was under 5.00 and the inhibition at 10 µM stood at 46.4%.

Regarding `CN(C)CCOc1cncc(-c2ccc3[nH]nc(-c4nc5c(-c6cccs6)cncc5[nH]4)c3n2)c1` [Compound 663, N,N-Dimethyl-2-((5-(3-(7-(thiophen-2-yl)-3H-imidazo[4,5-c]pyridin-2-yl)-1H-pyrazolo[4,3-b]pyridin-5-yl)pyridin-3-yl)oxy)ethan-1-amine], the negative-log EC50 (pEC50) in assay [1] was 5.91.

Turning to `Cc1ccc(-c2cncc3[nH]c(-c4n[nH]c5ccc(C6=CCNCC6)nc45)nc23)s1` [Compound 686, 3-(7-(5-Methylthiophen-2-yl)-3H-imidazo[4,5-c]pyridin-2-yl)-5-(1,2,3,6-tetrahydropyridin-4-yl)-1H-pyrazolo[4,3-b]pyridine], in assay [1], the negative logarithm of the EC50 (pEC50) was 5.31. This pEC50 lies 0.60 log units lower than the previous one.

As to `Cn1cc(-c2ccc3[nH]nc(-c4nc5c(-c6cc(F)cc(CNS(C)(=O)=O)c6)cncc5[nH]4)c3n2)cn1` [Compound 720, N-(3-Fluoro-5-(2-(5-(1-methyl-1H-pyrazol-4-yl)-1H-pyrazolo[4,3-b]pyridin-3-yl)-3H-imidazo[4,5-c]pyridin-7-yl)benzyl)methanesulfonamide], in assay [1], the pEC50 is under 5.00 and the inhibition at 10 µM amounted to 3.8%.

As for `CS(=O)(=O)NCc1cc(F)cc(-c2cncc3[nH]c(-c4n[nH]c5ccc(-c6cncc(NC(=O)CC7CCNCC7)c6)nc45)nc23)c1` [Compound 725, N-(5-(3-(7-(3-Fluoro-5-(methylsulfonamidomethyl)phenyl)-3H-imidazo[4,5-c]pyridin-2-yl)-1H-pyrazolo[4,3-b]pyridin-5-yl)pyridin-3-yl)-2-(piperidin-4-yl)acetamide], in assay [1], the pEC50 is under 5.00 and the inhibition at 10 µM came to 40.9%.

Turning to `CN(C)CCNc1cc(F)cc(-c2cncc3[nH]c(-c4n[nH]c5ccc(-c6cncc(OCCN7CCCC7)c6)nc45)nc23)c1` [Compound 742, N^1-(3-Fluoro-5-(2-(5-(5-(2-(pyrrolidin-1-yl)ethoxy)pyridin-3-yl)-1H-pyrazolo[4,3-b]pyridin-3-yl)-3H-imidazo[4,5-c]pyridin-7-yl)phenyl)-N^2,N^2-dimethylethane-1,2-diamine], in assay [1], the negative logarithm of the EC50 (pEC50) is under 5.00 and the inhibition at 10 µM stood at 0%.

For `COc1cccc(-c2cncc3[nH]c(-c4n[nH]c5ccc(-c6cncc(NC(=O)Cc7ccccc7)c6)nc45)nc23)c1` [Compound 955, N-(5-(3-(7-(3-methoxylphenyl)-3H-imidazo[4,5-c]pyridin-2-yl)-1H-pyrazolo[4,3-b]pyridin-5-yl)pyridin-3-yl)-2-phenylacetamide], in assay [1], the pEC50 was under 5.00 and the inhibition at 10 µM was 4.2%.

Consider `COc1cccc(-c2cncc3[nH]c(-c4n[nH]c5ccc(-c6cncc(NC(=O)CC(C)(C)C)c6)nc45)nc23)c1` [Compound 961, N-(5-(3-(7-(3-methoxylphenyl)-3H-imidazo[4,5-c]pyridin-2-yl)-1H-pyrazolo[4,3-b]pyridin-5-yl)pyridin-3-yl)-3,3-dimethylbutanamide], for which, in assay [1], the pEC50 was under 5.00 and the inhibition at 10 µM is 0%.

As for `COc1cccc(-c2cncc3[nH]c(-c4n[nH]c5ccc(-c6cn[nH]c6)nc45)nc23)c1` [Compound 975, 3-(7-(3-Methoxylphenyl)-3H-imidazo[4,5-c]pyridin-2-yl)-5-(1H-pyrazol-4-yl)-1H-pyrazolo[4,3-b]pyridine], in assay [1], the pEC50 is under 5.00 and the inhibition at 10 µM stood at 43.2%.

For the molecule `COc1cccc(-c2cncc3[nH]c(-c4n[nH]c5ccc(-c6cncc(OC7CCNCC7)c6)nc45)nc23)c1` [Compound 980, 3-(7-(3-Methoxylphenyl)-3H-imidazo[4,5-c]pyridin-2-yl)-5-(5-(piperidin-4-yloxy)pyridin-3-yl)-1H-pyrazolo[4,3-b]pyridine], the negative logarithm of the EC50 (pEC50) in assay [1] was 5.57.

In turn, `COc1cccc(-c2cncc3[nH]c(-c4n[nH]c5ccc(-c6cncc(O)c6)nc45)nc23)c1` [Compound 985, 5-(3-(7-(3-Methoxylphenyl)-3H-imidazo[4,5-c]pyridin-2-yl)-1H-pyrazolo[4,3-b]pyridin-5-yl)pyridin-3-ol] showed a negative-log EC50 (pEC50) in assay [1] of 5.63. This pEC50 and that of the molecule before are within 0.2 log units of each other.

Consider `NC1CN(c2cncc(-c3ccc4[nH]nc(-c5nc6c(-c7ccc(Cl)s7)cncc6[nH]5)c4n3)n2)C1` [Compound 1023, 1-(6-(3-(7-(5-Chlorothiophen-2-yl)-3H-imidazo[4,5-c]pyridin-2-yl)-1H-pyrazolo[4,3-b]pyridin-5-yl)pyrazin-2-yl)azetidin-3-amine], for which the pEC50 in assay [1] is 5.21. This pEC50 lies 0.42 log units lower than the previous one.

For the molecule `c1cc2c(cc1-c1cncc3[nH]c(-c4n[nH]c5ccc(C6CCNCC6)nc45)nc13)OCO2` [Compound 1063, 3-(7-(Benzo[d][1,3]dioxol-5-yl)-3H-imidazo[4,5-c]pyridin-2-yl)-5-(piperidin-4-yl)-1H-pyrazolo[4,3-b]pyridine], in assay [1], the pEC50 is under 5.00 and the inhibition at 10 µM was determined as 31.3%.

Molecule `C1=C(c2ccc3[nH]nc(-c4nc5c(-c6ccc7c(c6)OCO7)cncc5[nH]4)c3n2)CCNC1` [Compound 1064, 3-(7-(Benzo[d][1,3]dioxol-5-yl)-3H-imidazo[4,5-c]pyridin-2-yl)-5-(1,2,3,6-tetrahydropyridin-4-yl)-1H-pyrazolo[4,3-b]pyridine] gave a pEC50 in assay [1] of 5.40.

For the molecule `Cn1cc(-c2ccc3[nH]nc(-c4nc5c(-c6ccc(F)cc6)cncc5[nH]4)c3n2)c(CO)n1` [Compound 1084, (4-(3-(7-(4-Fluorophenyl)-3H-imidazo[4,5-c]pyridin-2-yl)-1H-pyrazolo[4,3-b]pyridin-5-yl)-1-methyl-1H-pyrazol-3-yl)methanol], the pEC50 in assay [1] is 5.64.

For `Cn1cc(-c2ccc3[nH]nc(-c4nc5c(N6CCCCC6)cncc5[nH]4)c3n2)c(CO)n1` [Compound 1089, (1-Methyl-4-(3-(7-(piperidin-1-yl)-3H-imidazo[4,5-c]pyridin-2-yl)-1H-pyrazolo[4,3-b]pyridin-5-yl)-1H-pyrazol-3-yl)methanol], in assay [1], the negative logarithm of the EC50 (pEC50) was under 5.00 and the inhibition at 10 µM turned out to be 36%.

For `Cn1cc(-c2ccc3[nH]nc(-c4nc5c(-c6ccc7c(c6)OCO7)cncc5[nH]4)c3n2)c(CO)n1` [Compound 1106, (4-(3-(7-(Benzo[d][1,3]dioxol-5-yl)-3H-imidazo[4,5-c]pyridin-2-yl)-1H-pyrazolo[4,3-b]pyridin-5-yl)-1-methyl-1H-pyrazol-3-yl)methanol], the negative logarithm of the EC50 (pEC50) in assay [1] was 5.62.

The term pEC50 denotes −log10 of the EC50, conventionally taken in molar units. What is called inhibition is the percentage by which the read-out fell short of the control.

For the origin of these results see US10188634B2, “3-(3H-imidazo[4,5-C]pyridin-2-yl)-1 H-pyrazolo[4,3-B]pyridines and therapeutic uses thereof” (Samumed, LLC, priority 2015, dated 2019).
